Test results: patent US10548829B2, “Oral care compositions and methods of use” (priority 2016, dated 2020)

How the values were obtained:
S. gordonii/S. sobrinus = experiment: Growth inhibition (OD610), co-culture; format: cell-based, S. gordonii and S. sobrinus
Experimental: (§1) Further characterization was performed on planktonic oral microbes; Streptococcus sobrinus (Cariongenic—strain-SL1[CCM 6070, CNCTC 9/89] (ATCC cat. #33478), Streptococcus gordonii (Arginolytic—strain V288 (ATCC cat. #35105), Actinomyces viscosus) as well late colonizer (Gram −), pathogenic Aggregatibacter actinomycetemcomitans. All microbes were grown in their respective culture media: Streptococcus sobrinus and Streptococcus gordonii in BHI broth (BD, cat #237500), Aggregatibacter actinomycetemcomitans in BHI broth supplemented with 0.5% Yeast Extract (BD, cat #210941) and Actinomyces viscosus in Trypticase Soy Broth (BD, cat #211768) supplemented with 0.5% Yeast Extract (BD, cat #210941). Bacteria were cultured overnight in 37° C., 5% CO2 in approximately 20 ml of the appropriate culture broth. The following day, the OD610 was determined and solutions were diluted to 0.2 for the assay.
(§2) Test samples (Naringin, Naringin:Zinc complex and Naringin+Zinc Acetate (combination)) were prepared as a 100 mM stock solution followed by 2 fold serial dilution in 100% DMSO. Triclosan (positive control) was prepared as a 10% stock in 100% EtOH and 3 fold serial dilutions were done in 100% EtOH. […]
(§3) After approximately 12-13 hours of treatment, the plate was read at 610 nm using an Envision plate reader (PerkinElmer, Waltham, Mass.). The % inhibition relative to control was determined as follows: […]

S. gordonii/A. viscosus = experiment: Growth inhibition (OD610), co-culture; format: cell-based, S. gordonii and A. viscosus
Experimental: as §1, §2, §3

Streptococcus sobrinus = experiment: Growth inhibition (OD610), single culture; format: cell-based
Experimental: (§4) Single species of Streptococcus gordonii (S. gordonii, S.g) strain V288 (ATCC #35105), Streptococcus sobrinus (S. sobrinus, S.$) strain SL1[CCM 6070, CNCTC 9/89] (ATCC #33478), or Aggregatibacter actinomycetemcomitans were analyzed. Also, a mixed culture containing Actinomyces viscosus (A. viscosus, A.v) strain (ATCC, #43146), Lactobacillus casei (L. casei, L.c) strain (ATCC #334), Streptococcus oralis (S. oralis, S. o) strain (ATCC #35037), Fusobacterium nucleatum (F. nucleatum, F. n) strain (ATCC #10953), and Veilonella parvula (V. parvula, V. p) strain (ATCC #17745) was also analyzed for growth inhibition/toxicity activity. Bacteria were cultured overnight in approximately 20 ml of BHI broth (BD, cat #237500) or maintained in a specialized complex modified BHI II medium in a continuous culture chemostat at 37° C. respectively. The following day, the OD610 were determined and solutions diluted to an OD610 of 0.2 or 0.1 respectively for the assay.
(§5) Triclosan (positive control) was prepared as a 10% stock in 100% EtOH and 3 fold serial dilutions were performed in 100% EtOH. An appropriate amount of the diluted samples was then transferred into a 96 well clear plate such that the resulting final concentration of the test samples ranged from either a 2 mM or 4 mM (highest concentration) to 0.0078 mM or 0.0156 mM (lowest concentration respectively) in 2% DMSO in 100 μl media per well. Triclosan (TCN) ranged from 0.01% to 1.67e-6% in 1% EtOH. For Zinc acetate, in order to mimic the 2:1 molar ratio (ligand:Zinc) in the Naringin:Zinc complex, the final concentration ranged from 0.7 mM to 0.0027 mM for samples with 2 mM as the highest concentration and 1.33 mM to […] for samples with 4 mM as the highest concentration in 2% DMSO. Next, 100 μl of bacterial culture at OD610 0.2 were introduced to the wells with the test samples. The wells were thoroughly mixed and incubated at 37° C. overnight. The plates were read using an Envision plate reader (PerkinElmer, Waltham, Mass.) at 610 nm.
(§6) The IC50 for the complex, Product 5, was determined for Streptococcus gordonii (S. gordonii), Streptococcus sobrinus (S. sobrinus), Aggregatibacter actinomycetemcomitans (A. actinomycetemcomitans), and also for the mixed bacterial culture. […] Triclosan (TCN) was included as a positive control for bacterial inhibition.
as §1
(§7) Triclosan (positive control) was prepared as a 10% stock in 100% EtOH and 3 fold serial dilutions were done in 100% EtOH. […] For Naringin+Zinc combination, while the highest total overall concentration was 2 mM, the exact concentration was Naringin (1.3 mM) and Zinc Acetate (0.7 mM) due to the compositions 2:1 molar ratio. For Zinc Acetate, in order to mimic the 2:1 ratio (ligand:Zinc) composition as in the complex, the final concentration ranged from 0.7 mM to 0.0027 mM in 2% DMSO.
(§8) A 100 μl aliquot of bacterial culture at OD610 0.2 were introduced to the wells with the test samples. The wells were thoroughly mixed and plates incubated overnight in a 37° C. incubator with or without 5% CO2 depending upon the bacterial species.

[1] = tested on: Aggregatibacter actinomycetemcomitans; experiment: Growth inhibition (OD610), single culture; format: cell-based; conditions: A. actinomycetemcomitans
Experimental: as §4, §5, §6, §1, §7, §8

Streptococcus gordonii = experiment: Growth inhibition (OD610), single culture; format: cell-based
Experimental: as §4, §5, §6, §1, §7, §8

[2] = tested on: planktonic oral bacterial species (S. sobrinus, S. gordonii, A. actinomycetemcomitans, A. viscosus, mixed cultures); experiment: Growth inhibition, summary statements over the single, co- and mixed cultures tested; format: cell-based, oral bacteria; conditions: for inhibition of single species, co-cultures and mixed cultures (in words): concentrations of Tables 7-12
Experimental: as §4, §5, §6, §1, §7, §8

S. sobrinus/A. viscosus = experiment: Growth inhibition (OD610), co-culture; format: cell-based, S. sobrinus and A. viscosus
Experimental: as §1, §2, §3

[3] = tested on: A. actinomycetemcomitans/S. sobrinus; experiment: Growth inhibition (OD610), co-culture; format: cell-based, A. actinomycetemcomitans and S. sobrinus
[4] = 0.5 mM (combination 0.5 mM total)

SMILES | % Inhibition (S. gordonii/S. sobrinus; 0.175 mM) | % Inhibition (S. gordonii/A. viscosus; 0.175 mM) | % Inhibition (Streptococcus sobrinus; S. sobrinus, 0.175 mM) | IC50 (Streptococcus sobrinus; Streptococcus sobrinus, overnight at 37° C., read-out: IC50) | % Inhibition ([1]; 0.175 mM) | % Inhibition (Streptococcus gordonii; S. gordonii, 0.175 mM) | IC50 (Streptococcus gordonii; Streptococcus gordonii, overnight at 37° C., read-out: IC50) | IC50 range over cultures tested, corresponding ppm ([2]; S. sobrinus, S. gordonii, A. actinomycetemcomitans and mixed chemostat cultures) | IC50 ([2]; S. sobrinus, S. gordonii, A. actinomycetemcomitans and mixed chemostat cultures, read-out: concentration that inhibited 50% of the bacterial growth (IC50), range over cultures tested) | inhibition of single species, co-cultures and mixed cultures (in words) [2] | % Inhibition (S. sobrinus/A. viscosus; 0.175 mM) | % Inhibition ([3]; 0.175 mM) | inhibition at 500 µM (S. gordonii/S. sobrinus; [4]) | inhibition at 500 µM (S. gordonii/A. viscosus; [4]) | inhibition at 500 µM (Streptococcus sobrinus; Streptococcus sobrinus, S. sobrinus, 0.5 mM (combination 0.325 mM + 0.175 mM, 0.5 mM total)) | inhibition at 500 µM ([1]; Aggregatibacter actinomycetemcomitans, 0.5 mM (combination 0.325 mM + 0.175 mM, 0.5 mM total)) | inhibition at 500 µM (Streptococcus gordonii; Streptococcus gordonii, S. gordonii, 0.5 mM (combination 0.325 mM + 0.175 mM, 0.5 mM total)) | antimicrobial effect on bacterial species tested (in words) ([2]; all concentrations tested, cultured alone or as co-cultures) | inhibition at 500 µM (S. sobrinus/A. viscosus; [4]) | inhibition at 500 µM [3, 4]
CC(=O)[O-].CC(=O)[O-].[Zn+2] [Zinc Acetate alone, Zinc (II) Acetate] | 1.55 ± 0.24% | −0.74 ± 6.34% | −1.05 ± 3.10% | 290 ± 40 µM | 29.24 ± 0.42% | 13.51 ± 10.18% | 300 ± 20 µM | 45.9-317.5 ppm | 250 to 1730 µM | little to no detectable inhibition | 2.46 ± 6.58% | 6.58 ± 5.36% |  |  |  |  |  |  |  | 
C[C@@H]1O[C@@H](O[C@H]2[C@H](Oc3cc(O)c4c(c3)O[C@H](c3ccc(O)cc3)CC4=O)O[C@H](CO)[C@@H](O)[C@@H]2O)[C@H](O)[C@H](O)[C@H]1O [Naringin] |  |  |  |  |  |  |  |  |  | little to no detectable inhibition |  |  | -6.84 ± 1.19% | -2.39 ± 5.68% | -2.64 ± 2.54% | 5.01 ± 1.69% | 0.96 ± 2.82% | did not show detectable antimicrobial effect | -3.79 ± 7.15% | 0.33 ± 3.48%
